# Patent US6924314B2, “Compounds for the treatment of metabolic disorders” (Wellstat Therapeutics Corporation, priority 2001, dated 2005)
# Tests used:
# [1] = test system: Zucker Diabetic Fatty (ZDF) rats; experiment: Attenuation of cataractogenesis in Zucker Diabetic Fatty (ZDF) rats; assay type: in vivo; details: 100 mg/kg daily oral, 10 weeks
# Description: Cataracts are one of the leading causes of progressive vision decline and blindness associated with ageing and diabetes, and the Zucker diabetic fatty (ZDF) model has many similarities with human cataractogenesis, including biochemical changes and oxidative stress in the lens. These rats, however, undergo cataractogenesis typically between 14-16 weeks of age.
# Male ZDF rats and their aged-match Zucker lean (ZL) counterparts (fa/+ or +/+) were obtained from Genetic Models, Inc. (Indianapolis, Ind.) aged 12 weeks and acclimatized for 1 week prior to study. […] Treatment cohorts were given a daily oral dose of vehicle and 100 mg/kg of BI or BH for 10 weeks. […] At the end of the treatment period 100 μl of venous blood was collected (usually 10:00 A.M.) in a heparinized tube from the tail vein for serum chemistry analysis (Anilytics, Inc., Gaithersburg, Md.). […] Plasma insulin was measured by an electrochemiluminescent immunoassay, ECL (Origen Analyzer, Igen, Inc., Gaithersburg, Md.). The animals were sacrificed and tissues and/or organs (lens and liver) were extirpated, weighed (wet weight) and processed for biochemical analyses. Malondialdehyde (MDA), a major product of lipid peroxidation was assayed in lenses according to Ohkawa et al (1979), Analytical Biochem 95, 351-358).
# db/db mice [2] = experiment: Antidiabetic effects in db/db mice, four weeks of daily oral dosing; assay type: in vivo; details: for Glucose / Glucose (% of Control): 150 mg/kg daily oral, four weeks; for blood glucose: after four weeks of daily oral dosing (Compound AW, BH 150 mg/kg; pioglitazone 100 mg/kg)
# Description: Db/db mice have a defect in leptin signaling, leading to hyperphagia, obesity and diabetes. Moreover, unlike ob/ob mice which have relatively robust islets, their insulin-producing pancreatic islet cells undergo failure during chronic hyperglycemia, so that they transition from hyperinsulinemia (associated with peripheral insulin resistance) to hypoinsulinemic diabetes.
# Male db/db mice were given daily oral treatments with vehicle (0.75% hydroxypropylmethylcellulose) or antidiabetic compounds as indicated below. Blood samples were obtained via the retro-orbital sinus for serum chemistry analysis, or via the tail vein for glucose measurement with a test strip and glucometer.
# The dose of pioglitazone used in this experiment was reported in the literature to be a maximally-effective dose for treatment of db/db mice (Shimaya et al. (2000), Metabolism 49:411-7).
# ob/ob mice = experiment: Hyperglycemia, hyperlipidemia, fatty liver disease and weight gain in ob/ob obese diabetic mice, daily oral dosing; assay type: in vivo, C57BL/6 mice; details: for Free Fatty Acids ± SEM / Glucose ± SEM / Triglycerides ± SEM / ALT (U/L) ± SEM / AST (U/L) ± SEM / SDH (U/L) ± SEM: 4 weeks; for ALT (U/L) ± SEM / AST (U/L) ± SEM / SDH (U/L) ± SEM: serum
# Description: Ob/ob mice have a defect in the gene for leptin, a protein involved in appetite regulation and energy metabolism, and are hyperphagic, obese, and insulin resistant. They develop hyperglycemia and fatty liver.
# db/db mice [3] = experiment: Antidiabetic effects in db/db mice, second experiment, 8 weeks of treatment; assay type: in vivo; details: 20 mg/kg, 8 weeks of treatment
# Description: Blood samples were obtained via the retro-orbital sinus for serum chemistry analysis, or via the tail vein for glucose measurement with a test strip and glucometer.
# Groups consisted of 6-8 mice each.
# [4] = test system: high fat-fed C57Bl/6J mice; experiment: Circulating triglycerides, free fatty acids, insulin and leptin in high fat-fed C57Bl/6J mice; assay type: in vivo; details: after 2 weeks of drug treatments
# Description: The high fat-fed mouse is a model for the hypertriglyceridemia and high circulating fatty acid levels, and the insulin and leptin resistance that are found in people at risk for and with obesity, diabetes, cardiovascular disease and other disorders. Male C57Bl/6J mice, approximately 8 weeks of age, were randomly assigned into groups of 6 animals. […] Mice were fed a high-fat diet (diet number D12451, containing 45% of calories as fat (Research Diets, New Brunswick, N.J.)) for 6 weeks. […]
# [5] = test system: ob/ob obese diabetic mice; experiment: Acute hypoglycemic effect in ob/ob obese diabetic mice: Expt 2; assay type: in vivo; details: single oral dose 250 mg/kg
# Description: Male ob/ob mice (50-55 grams; blood glucose ˜300 mg/dL) were divided into groups of five animals each, and given a single oral dose of test drug (250 mg/kg) suspended in 0.5% carboxymethylcellulose vehicle; a control group received oral vehicle alone.
# Six hours after oral administration of test drugs or vehicle (control), blood samples were obtained from a tail vein and glucose content was determined with a glucometer.
# [6] = 3 mg/kg/day, four week treatment period
# [7] = 10 mg/kg/day, four week treatment period
# [8] = 30 mg/kg/day, four week treatment period
smiles,measurement,setting,value
"O=C(O)CCC(=O)c1cccc(OCC2CC2)c1 [Compound BH, 4-(3-((Cyclopropyl)-methoxy)phenyl)-4-oxobutyric acid]",% Protection Left Eye,[1],33%
same,% Protection Right Eye,[1],17%
same,Cataract Formation Left Eye,[1],4/6
same,Cataract Formation Right Eye,[1],5/6
same,Lenticular MDA,[1]; means ± SEM,1.9 ± 0.2 nmol/g lens
same,Size (mm) Left Lens,[1]; means ± SEM,2.5 ± 0.3 mm
same,Size (mm) Right Lens,[1]; means ± SEM,2.1 ± 0.4 mm
same,Weight (mg) Left Lens,[1]; means ± SEM,27.0 ± 7.2 mg
same,Weight (mg) Right Lens,[1]; means ± SEM,20.0 ± 6.6 mg
same,Glucose,db/db mice [2],229 ± 49 mg/dL
same,Glucose (% of Control),db/db mice [2],41 ± 9 % of Control
same,blood glucose,db/db mice [2],significant reduction in blood glucose
"CN(CCOc1ccc(CC2SC(=O)NC2=O)cc1)c1ccccn1 (centres unmarked) [Rosiglitazone, rosiglitazone, reference compound]",Free Fatty Acids ± SEM,ob/ob mice; 1 mg/kg/day oral,2090.75 ± 67.7 µmol/L
same,Glucose ± SEM,ob/ob mice; 1 mg/kg/day oral,142.75 ± 8.8 mg/dL
same,Triglycerides ± SEM,ob/ob mice; 1 mg/kg/day oral,109.75 ± 4.4 mg/dL
same,Mean body weight gain (grams),"ob/ob mice; 1 mg/kg/day, four week treatment period",+8.2 grams
same,Free Fatty Acids ± SEM,ob/ob mice; 3 mg/kg/day oral,2317.6 ± 85.3 µmol/L
same,Glucose ± SEM,ob/ob mice; 3 mg/kg/day oral,190.2 ± 12.7 mg/dL
same,Triglycerides ± SEM,ob/ob mice; 3 mg/kg/day oral,107.8 ± 3.8 mg/dL
same,Mean body weight gain (grams),ob/ob mice; [6],+8.5 grams
same,Free Fatty Acids ± SEM,ob/ob mice; 10 mg/kg/day oral,2606.4 ± 139.2 µmol/L
same,Glucose ± SEM,ob/ob mice; 10 mg/kg/day oral,188.2 ± 21.4 mg/dL
same,Triglycerides ± SEM,ob/ob mice; 10 mg/kg/day oral,111.2 ± 7.5 mg/dL
same,Mean body weight gain (grams),ob/ob mice; [7],+11.0 grams
same,Free Fatty Acids ± SEM,ob/ob mice; 30 mg/kg/day oral,1983.4 ± 66.1 µmol/L
same,Glucose ± SEM,ob/ob mice; 30 mg/kg/day oral,174.6 ± 11.5 mg/dL
same,Triglycerides ± SEM,ob/ob mice; 30 mg/kg/day oral,95.2 ± 4.8 mg/dL
same,Mean body weight gain (grams),ob/ob mice; [8],+12.0 grams
same,Glucose,db/db mice [3],343 ± 38 mg/dL
same,Triglycerides,db/db mice [3],89 ± 16 mg/dL
same,Free Fatty Acids,[4]; 1 mg/kg oral gavage,1537 ± 256.3 µmol/L
same,Triglycerides,[4]; 1 mg/kg oral gavage,76.6 ± 16.5 mg/dL
same,Free Fatty Acids,[4]; 3 mg/kg oral gavage,1833.2 ± 169.8 µmol/L
same,Triglycerides,[4]; 3 mg/kg oral gavage,103.2 ± 10.8 mg/dL
same,Free Fatty Acids,[4]; 10 mg/kg oral gavage,1810.3 ± 595 µmol/L
same,Triglycerides,[4]; 10 mg/kg oral gavage,129.5 ± 48.7 mg/dL
same,Free Fatty Acids,[4]; 100 mg/kg oral gavage,1568.5 ± 197 µmol/L
same,Triglycerides,[4]; 100 mg/kg oral gavage,88 ± 7.2 mg/dL
"O=C(O)CCC(=O)c1cccc(OCc2c(F)cccc2F)c1 [Compound AW, 4-(3-(2,6-Difluorobenzyloxy)phenyl)-4-oxobutyric acid]",Mean body weight gain (grams),ob/ob mice; [6],+7.3 grams
same,Free Fatty Acids ± SEM,ob/ob mice; 10 mg/kg/day oral,3697.4 ± 357.8 µmol/L
same,Glucose ± SEM,ob/ob mice; 10 mg/kg/day oral,369.6 ± 62.5 mg/dL
same,Triglycerides ± SEM,ob/ob mice; 10 mg/kg/day oral,115.6 ± 7.8 mg/dL
same,Mean body weight gain (grams),ob/ob mice; [7],+6.7 grams
same,Free Fatty Acids ± SEM,ob/ob mice; 30 mg/kg/day oral,2552.2 ± 334.7 µmol/L
same,Glucose ± SEM,ob/ob mice; 30 mg/kg/day oral,280.2 ± 46.7 mg/dL
same,Triglycerides ± SEM,ob/ob mice; 30 mg/kg/day oral,96.4 ± 7.3 mg/dL
same,Mean body weight gain (grams),ob/ob mice; [8],+6.4 grams
same,Free Fatty Acids ± SEM,ob/ob mice; 100 mg/kg/day oral,1476 ± 82.1 µmol/L
same,Glucose ± SEM,ob/ob mice; 100 mg/kg/day oral,286 ± 47.1 mg/dL
same,Triglycerides ± SEM,ob/ob mice; 100 mg/kg/day oral,66.2 ± 5.9 mg/dL
same,Mean body weight gain (grams),"ob/ob mice; 100 mg/kg/day, four week treatment period",+3.4 grams
same,Free Fatty Acids ± SEM,ob/ob mice; 150 mg/kg/day oral,1481 ± 158.8 µmol/L
same,Glucose ± SEM,ob/ob mice; 150 mg/kg/day oral,188.6 ± 28.8 mg/dL
same,Triglycerides ± SEM,ob/ob mice; 150 mg/kg/day oral,72.6 ± 5.6 mg/dL
same,Mean body weight gain (grams),"ob/ob mice; 150 mg/kg/day, four week treatment period",+4.6 grams
same,Free Fatty Acids ± SEM,ob/ob mice; 300 mg/kg/day oral,1452.6 ± 111.1 µmol/L
same,Glucose ± SEM,ob/ob mice; 300 mg/kg/day oral,128.4 ± 8.8 mg/dL
same,Triglycerides ± SEM,ob/ob mice; 300 mg/kg/day oral,63.6 ± 3.4 mg/dL
same,Mean body weight gain (grams),"ob/ob mice; 300 mg/kg/day, four week treatment period",−0.7 grams
same,blood glucose,"ob/ob mice; daily oral doses, compared with pioglitazone and rosiglitazone",reduction in blood glucose comparable to that achieved with pioglitazone and rosiglitazone
same,liver fat droplets (liver histology),ob/ob mice; daily treatment for 4 weeks,marked reduction in liver fat droplets
same,serum triglycerides and fatty acids,"ob/ob mice; doses of 100 to 300 mg/kg/day, versus comparators at their optimum antihyperglycemic doses",reduced serum triglycerides and fatty acids better than did either rosiglitazone or pioglitazone
same,"serum liver enzymes (ALT, AST, SDH)",ob/ob mice; doses ranging from 30 mg/kg/day to 300 mg/kg/day,dose-dependent decrease in serum liver enzymes
same,weight gain relative to vehicle-treated mice,ob/ob mice; four week treatment period,dose-dependent attenuation of weight gain
same,ALT (U/L) ± SEM,ob/ob mice; 10 mg/kg/day oral,483.8 ± 81.9 U/L
same,AST (U/L) ± SEM,ob/ob mice; 10 mg/kg/day oral,653.4 ± 104.8 U/L
same,SDH (U/L) ± SEM,ob/ob mice; 10 mg/kg/day oral,626.8 ± 93.8 U/L
same,ALT (U/L) ± SEM,ob/ob mice; 30 mg/kg/day oral,320.2 ± 46.2 U/L
same,AST (U/L) ± SEM,ob/ob mice; 30 mg/kg/day oral,399.6 ± 74.4 U/L
same,SDH (U/L) ± SEM,ob/ob mice; 30 mg/kg/day oral,333.0 ± 66.9 U/L
same,ALT (U/L) ± SEM,ob/ob mice; 100 mg/kg/day oral,202.8 ± 38.0 U/L
same,AST (U/L) ± SEM,ob/ob mice; 100 mg/kg/day oral,143.8 ± 30.4 U/L
same,SDH (U/L) ± SEM,ob/ob mice; 100 mg/kg/day oral,121.2 ± 14.1 U/L
same,ALT (U/L) ± SEM,ob/ob mice; 150 mg/kg/day oral,149.2 ± 15.6 U/L
same,AST (U/L) ± SEM,ob/ob mice; 150 mg/kg/day oral,185.8 ± 26.0 U/L
same,SDH (U/L) ± SEM,ob/ob mice; 150 mg/kg/day oral,166.2 ± 20.0 U/L
same,ALT (U/L) ± SEM,ob/ob mice; 300 mg/kg/day oral,188.2 ± 10.3 U/L
same,AST (U/L) ± SEM,ob/ob mice; 300 mg/kg/day oral,335.4 ± 44.8 U/L
same,SDH (U/L) ± SEM,ob/ob mice; 300 mg/kg/day oral,207.0 ± 29.3 U/L
same,Glucose,db/db mice [2],313 ± 34 mg/dL
same,Glucose (% of Control),db/db mice [2],56 ± 6 % of Control
same,blood glucose,db/db mice [2],significant reduction in blood glucose
same,Blood Glucose after 6 hours,[5],143 ± 15 mg/dL
